Measured values published in ChEMBL document CHEMBL1156391, “Screening of triterpenoids isolated from Phyllanthus flexuosus for DNA topoisomerase inhibitory activity” (J Nat Prod, 2001).
Active and inactive are the calls of the source. No cut-off for these calls is given here.

What was measured:
[1] = target: T1, DNA topoisomerase 2-alpha (Homo sapiens, UniProt P11388); experiment: Inhibition of human 1 unit topoisomerase 2alpha catalytic activity assessed as relaxation of 198 ng supercoiled pBR322 DNA by agarose gel electrophoresis
[2] = target: T1, DNA topoisomerase 2-alpha; experiment: Inhibition of 1 unit human topoisomerase 2alpha catalytic activity assessed as relaxation of 198 ng supercoiled pBR322 DNA at 100 uM by agarose gel electrophoresis
[3] = target: T2, DNA topoisomerase 1 (Homo sapiens) (UniProt P11387); experiment: Inhibition of human topoisomerase 1 assessed as relaxation of supercoiled pBR322 DNA up to 200 uM by agarose gel electrophoresis
T2 sequence (whole entry): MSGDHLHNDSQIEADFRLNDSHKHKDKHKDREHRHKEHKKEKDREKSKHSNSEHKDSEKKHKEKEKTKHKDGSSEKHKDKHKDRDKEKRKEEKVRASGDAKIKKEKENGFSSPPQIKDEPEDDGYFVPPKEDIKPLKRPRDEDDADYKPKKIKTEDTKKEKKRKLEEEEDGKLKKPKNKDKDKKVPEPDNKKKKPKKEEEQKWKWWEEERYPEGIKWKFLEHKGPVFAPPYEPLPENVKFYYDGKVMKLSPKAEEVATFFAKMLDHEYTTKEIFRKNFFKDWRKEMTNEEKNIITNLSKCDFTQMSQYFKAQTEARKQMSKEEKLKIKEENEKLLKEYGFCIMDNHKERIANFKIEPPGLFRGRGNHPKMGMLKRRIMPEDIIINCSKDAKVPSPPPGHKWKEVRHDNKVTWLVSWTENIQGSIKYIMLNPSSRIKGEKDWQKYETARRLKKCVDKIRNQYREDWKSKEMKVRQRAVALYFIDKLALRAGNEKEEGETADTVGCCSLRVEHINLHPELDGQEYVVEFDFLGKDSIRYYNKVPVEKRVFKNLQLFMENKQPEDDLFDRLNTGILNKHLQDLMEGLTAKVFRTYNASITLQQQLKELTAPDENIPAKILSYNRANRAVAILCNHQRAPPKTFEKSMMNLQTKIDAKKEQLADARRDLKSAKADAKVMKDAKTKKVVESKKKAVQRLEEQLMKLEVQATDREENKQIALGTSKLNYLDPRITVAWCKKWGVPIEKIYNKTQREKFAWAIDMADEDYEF

[4] = target: T1, DNA topoisomerase 2-alpha; experiment: Inhibition of 1 unit human topoisomerase 2alpha catalytic activity assessed as relaxation of 198 ng supercoiled pBR322 DNA at 200 uM by agarose gel electrophoresis

T1 sequence (P11388 whole entry): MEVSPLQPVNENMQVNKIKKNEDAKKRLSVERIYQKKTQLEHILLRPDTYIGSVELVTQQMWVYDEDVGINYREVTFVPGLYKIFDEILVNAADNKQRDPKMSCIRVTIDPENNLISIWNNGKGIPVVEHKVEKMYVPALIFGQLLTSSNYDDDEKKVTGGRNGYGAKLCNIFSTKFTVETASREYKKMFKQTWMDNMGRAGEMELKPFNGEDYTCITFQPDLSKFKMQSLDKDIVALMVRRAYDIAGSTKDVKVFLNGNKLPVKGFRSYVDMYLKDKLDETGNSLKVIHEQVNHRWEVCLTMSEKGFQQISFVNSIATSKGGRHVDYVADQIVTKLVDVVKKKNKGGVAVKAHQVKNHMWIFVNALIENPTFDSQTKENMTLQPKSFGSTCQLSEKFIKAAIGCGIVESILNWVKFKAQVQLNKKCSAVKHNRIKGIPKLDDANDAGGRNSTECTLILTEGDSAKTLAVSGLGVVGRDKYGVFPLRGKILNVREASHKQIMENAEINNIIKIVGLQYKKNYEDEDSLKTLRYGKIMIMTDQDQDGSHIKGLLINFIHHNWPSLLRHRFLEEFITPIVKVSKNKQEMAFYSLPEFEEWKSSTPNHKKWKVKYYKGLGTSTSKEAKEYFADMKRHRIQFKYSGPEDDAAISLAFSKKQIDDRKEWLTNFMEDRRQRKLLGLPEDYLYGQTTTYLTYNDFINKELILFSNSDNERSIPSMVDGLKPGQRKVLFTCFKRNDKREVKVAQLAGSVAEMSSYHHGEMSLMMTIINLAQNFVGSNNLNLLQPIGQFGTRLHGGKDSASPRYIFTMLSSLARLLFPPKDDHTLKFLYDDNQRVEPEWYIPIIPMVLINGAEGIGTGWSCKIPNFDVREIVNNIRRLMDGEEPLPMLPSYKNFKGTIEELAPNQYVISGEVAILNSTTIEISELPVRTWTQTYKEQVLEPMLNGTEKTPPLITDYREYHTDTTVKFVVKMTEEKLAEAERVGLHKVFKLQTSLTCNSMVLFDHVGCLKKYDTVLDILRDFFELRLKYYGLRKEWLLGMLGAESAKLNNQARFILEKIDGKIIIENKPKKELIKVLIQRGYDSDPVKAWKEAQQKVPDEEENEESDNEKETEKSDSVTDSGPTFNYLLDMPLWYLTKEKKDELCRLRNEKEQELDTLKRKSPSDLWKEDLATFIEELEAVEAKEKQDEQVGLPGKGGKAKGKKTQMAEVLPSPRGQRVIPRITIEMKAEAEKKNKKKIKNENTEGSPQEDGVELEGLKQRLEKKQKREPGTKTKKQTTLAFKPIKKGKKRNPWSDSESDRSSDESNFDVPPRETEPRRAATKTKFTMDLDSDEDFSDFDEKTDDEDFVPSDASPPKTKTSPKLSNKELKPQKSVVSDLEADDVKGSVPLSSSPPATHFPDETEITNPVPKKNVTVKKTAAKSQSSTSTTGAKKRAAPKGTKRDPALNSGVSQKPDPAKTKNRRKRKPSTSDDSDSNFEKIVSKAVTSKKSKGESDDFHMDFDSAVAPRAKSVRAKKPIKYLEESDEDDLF

Activity [1]	IC50 [1]	Activity [2]	Activity [3]	inhibition [4]	Compound
Dose-dependent effect	17.5 µM	Active	inactive	–	CC1(C)CC[C@]2(C)C[C@H](O)[C@]3(C)C(=CC[C@@H]4[C@@]5(C)CC[C@H](O)C(C)(C)[C@@H]5CC[C@]43C)[C@@H]2C1
–	> 200 µM	–	inactive	33%	CC1(C)CC[C@]2(C)CC[C@]3(C)C(=CC[C@@H]4[C@@]5(C)CC[C@H](O)[C@](C)(CO)[C@@H]5CC[C@]43C)[C@@H]2C1
Dose-dependent effect	38.7 µM	Active	inactive	–	CC1(C)CC[C@]2(C)C[C@H](O)[C@]3(C)C(=CC[C@@H]4[C@@]5(C)CC[C@H](O)[C@](C)(CO)[C@@H]5CC[C@]43C)[C@@H]2C1
Dose-dependent effect	10.4 µM	Active	inactive	–	C=C(C)[C@@H]1CC[C@]2(C)CC[C@]3(C)[C@H](CC[C@@H]4[C@@]5(C)CC[C@H](O)C(C)(C)[C@@H]5CC[C@]43C)[C@@H]12 [LUPEOL]
–	–	–	inactive	inactive	C=C(C)[C@@H]1CC[C@]2(C)CC[C@]3(C)[C@H](CC[C@@H]4[C@@]5(C)CC[C@H](O)[C@](C)(CO)[C@@H]5CC[C@]43C)[C@H]12

Compound	Activity [1]	IC50 [1]	Activity [2]	Activity [3]	inhibition [4]
C=C(C)[C@@H]1CC[C@]2(CO)CC[C@]3(C)[C@H](CC[C@@H]4[C@@]5(C)CC[C@H](O)C(C)(C)[C@@H]5CC[C@]43C)[C@@H]12 [BETULIN]	Dose-dependent effect	38.6 µM	Active	inactive	–
